From patent US12544375B2, “Small molecule therapeutic for parkinson's disease paired with a biomarker of therapeutic activity” (The Board of Trustees of the Leland Stanford Junior …, priority 2019, dated 2026) come the findings set out here.

This test relates to iPSC-derived dopaminergic neurons from PD patients. The test can be described thus: Antimycin A stress-induced neurodegeneration of iPSC-derived dopaminergic neurons (TH, PI staining). It is filed as cell-based, human. As to conditions: 5 μM for 30 hrs, 10 μM Antimycin A for 6 hrs, neurons from both PD patients. On the procedure:
FIG. 3A-FIG. 3D. Miro1 Reducer Rescues Parkinson's Neurodegeneration. (FIG. 3A) Fibroblasts were treated, lysed, and blotted as indicated. Band intensities are normalized to those of ATP5β from the same blots and compared to “Healthy-2, no treatment”. n=4. (FIG. 3B-FIG. 3C) iPSC-derived neurons were treated as indicated and immunostained with anti-TH (FIG. 3B) or stained with PI and Dapi (FIG. 3C). Both Antimycin A and Miro1 Reducer were dissolved in ethanol. Neurons were pretreated with Miro1 Reducer 24 hrs before the application of Antimycin A for another 6 hrs. The same volume of ethanol was applied at the same time in negative controls. (FIG. 3B) The density of TH-positive neurons is calculated in each condition under 20×, from 10 fields each experiment, 3-4 experiments. […] (FIG. 3C) The percentage of PI-positive cells out of total cells (Dapi-positive) is calculated. n=20 fields each experiment, 4 experiments. For (FIG. 3B-FIG. 3C), comparisons with “Wild-type-I, no treatment” except otherwise indicated. […] Graphs of Mean±S.E.M show the percent of time each mitochondrion is in motion (red and blue, compared to “Wild-type-I, before treatment”), and the mitochondrial intensity normalized to that of the same axonal region at “0 min” and expressed as a fraction of the mean of “Wild-type-I, 0 min”. n=33-77 mitochondria from 5-8 axons from 5-8 separate transfections. […]

Regarding `O=C(Nc1ccc(Nc2cc(-n3ccnc3)ncn2)cc1)Nc1cccc(F)c1` [Miro1 Reducer], the “stress-induced neurodegeneration of dopaminergic neurons” value was “completely rescued”.
